Laboratory results from PubChem BioAssay AID2060905 (Molecular Pharmacology Branch, DTP, NCI, 2025).

Test system: 282377-053-R-J1-PDC complex spheroid viability
Test: Anticancer human tumor 282377-053-R-J1-PDC patient-derived colon adenocarcinoma cell line growth inhibition [RAS]
Settings: for IC50: curve of first compound; for viability, T/C: stronger effect = lower value; active = viability on the fitted dose curve at most 10% of control; inactive = the rest
In short: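 Multi-cell-type spheroids: tumor cells plus HUVEC endothelial cells and mesenchymal stem cells. RAS-pathway inhibitors were combined with targeted agents, each dosed in half-log steps down from clinical Cmax, or from 10 microM when Cmax was unknown.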

[1] = second compound 0.00316 µM, first compound 0.0316 µM
[2] = second compound 0.00316 µM, first compound 0.1 µM
[3] = second compound 0.00316 µM, first compound 0.316 µM
[4] = second compound 0.00316 µM, first compound 1 µM
[5] = second compound 0.00316 µM, first compound 3.16 µM
[6] = second compound 0.00316 µM, first compound 10 µM
[7] = second compound 0.01 µM, first compound 0.0316 µM
[8] = second compound 0.01 µM, first compound 0.1 µM
[9] = second compound 0.01 µM, first compound 0.316 µM
[10] = second compound 0.01 µM, first compound 1 µM
[11] = second compound 0.01 µM, first compound 3.16 µM
[12] = second compound 0.01 µM, first compound 10 µM
[13] = second compound 0.0316 µM, first compound 0.0316 µM
[14] = second compound 0.0316 µM, first compound 0.1 µM
[15] = second compound 0.0316 µM, first compound 0.316 µM
[16] = second compound 0.0316 µM, first compound 1 µM
[17] = second compound 0.0316 µM, first compound 3.16 µM
[18] = second compound 0.0316 µM, first compound 10 µM
[19] = second compound 0.1 µM, first compound 0.0316 µM
[20] = second compound 0.1 µM, first compound 0.1 µM
[21] = second compound 0.1 µM, first compound 0.316 µM
[22] = second compound 0.1 µM, first compound 1 µM
[23] = second compound 0.1 µM, first compound 3.16 µM
[24] = second compound 0.1 µM, first compound 10 µM
[25] = second compound 0.316 µM, first compound 0.0316 µM
[26] = second compound 0.316 µM, first compound 0.1 µM
[27] = second compound 0.316 µM, first compound 0.316 µM
[28] = second compound 0.316 µM, first compound 1 µM
[29] = second compound 0.316 µM, first compound 3.16 µM
[30] = second compound 0.316 µM, first compound 10 µM
[31] = second compound 1 µM, first compound 0.0316 µM
[32] = second compound 1 µM, first compound 0.1 µM
[33] = second compound 1 µM, first compound 0.316 µM
[34] = second compound 1 µM, first compound 1 µM
[35] = second compound 1 µM, first compound 3.16 µM
[36] = second compound 1 µM, first compound 10 µM
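Also: spheroids exposed to agents for seven days before readout.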
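For viability, T/C in this document: luminescence viability as percent of DMSO vehicle control wells.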

CC1(O)CCCC1n1c(=O)c(C(F)F)cc2cnc(NC3CCN(S(C)(=O)=O)CC3)nc21 (stereo not given) + C=CC(=O)N1CCN(c2nc(OCC3CCCN3C)nc3c(F)c(-c4nc(N)cc(C)c4C(F)(F)F)c(Cl)cc23)C(C)C1
6.22 µM: IC50 (second compound 0.1 µM)
6.03 µM: IC50 (second compound 0.01 µM)
6.21 µM: IC50 (second compound 0.316 µM)
inactive: viability, T/C [1] 124% | viability, T/C [2] 124% | viability, T/C [3] 134% | viability, T/C [4] 106% | viability, T/C [5] 109% | viability, T/C [7] 118% | viability, T/C [8] 113% | viability, T/C [9] 107% | viability, T/C [10] 122% | viability, T/C [11] 110% | viability, T/C [13] 102% | viability, T/C [14] 141% | viability, T/C [15] 123% | viability, T/C [16] 110% | viability, T/C [17] 107% | viability, T/C [19] 107% | viability, T/C [20] 117% | viability, T/C [21] 124% | viability, T/C [22] 118% | viability, T/C [23] 119% | viability, T/C [25] 108% | viability, T/C [26] 112% | viability, T/C [27] 125% | viability, T/C [28] 111% | viability, T/C [29] 128% | viability, T/C [31] 131% | viability, T/C [32] 131% | viability, T/C [33] 135% | viability, T/C [34] 132% | viability, T/C [35] 129%
6.48 µM: IC50 (second compound 1 µM)
5.93 µM: IC50 (second compound 0.0316 µM)
active: viability, T/C [6] 2.69% | viability, T/C [12] 2.79% | viability, T/C [18] 3.33% | viability, T/C [24] 2.9% | viability, T/C [30] 2.56% | viability, T/C [36] 2.51%
6.01 µM: IC50 (second compound 0.00316 µM)

CCC(CC)c1cc(NC2CCC(N)C2)n2nccc2n1 (stereo not given) + C=CC(=O)N1CCN(c2nc(OCC3CCCN3C)nc3c(F)c(-c4nc(N)cc(C)c4C(F)(F)F)c(Cl)cc23)C(C)C1
1.9 µM: IC50 (second compound 0.01 µM)
1.89 µM: IC50 (second compound 1 µM)
1.69 µM: IC50 (second compound 0.1 µM)
active: viability, T/C [5] 7.62% | viability, T/C [6] 2.24% | viability, T/C [11] 7.28% | viability, T/C [12] 1.55% | viability, T/C [17] 8.89% | viability, T/C [18] 1.69% | viability, T/C [23] 7.78% | viability, T/C [24] 1.54% | viability, T/C [29] 7.41% | viability, T/C [30] 1.9% | viability, T/C [35] 7.89% | viability, T/C [36] 2.25%
1.94 µM: IC50 (second compound 0.00316 µM)
inactive: viability, T/C [1] 117% | viability, T/C [2] 101% | viability, T/C [3] 93.8% | viability, T/C [4] 116% | viability, T/C [7] 110% | viability, T/C [8] 98.1% | viability, T/C [9] 92% | viability, T/C [10] 115% | viability, T/C [13] 103% | viability, T/C [14] 97% | viability, T/C [15] 96.3% | viability, T/C [16] 94.5% | viability, T/C [19] 124% | viability, T/C [20] 107% | viability, T/C [21] 113% | viability, T/C [22] 85.3% | viability, T/C [25] 111% | viability, T/C [26] 105% | viability, T/C [27] 109% | viability, T/C [28] 100% | viability, T/C [31] 109% | viability, T/C [32] 103% | viability, T/C [33] 123% | viability, T/C [34] 102%
1.82 µM: IC50 (second compound 0.0316 µM)
1.86 µM: IC50 (second compound 0.316 µM)

Cc1nc(N2CCC3(CC2)COC(C)C3N)c(CO)nc1Sc1ccnc(N)c1Cl (stereo not given) + C=CC(=O)N1CCN(c2nc(OCC3CCCN3C)nc3c(F)c(-c4nc(N)cc(C)c4C(F)(F)F)c(Cl)cc23)C(C)C1
inactive: viability, T/C [1] 111% | viability, T/C [2] 101% | viability, T/C [3] 118% | viability, T/C [4] 103% | viability, T/C [5] 108% | viability, T/C [6] 116% | viability, T/C [7] 100% | viability, T/C [8] 122% | viability, T/C [9] 103% | viability, T/C [10] 109% | viability, T/C [11] 92.5% | viability, T/C [12] 127% | viability, T/C [13] 93.6% | viability, T/C [14] 98.3% | viability, T/C [15] 109% | viability, T/C [16] 82.8% | viability, T/C [17] 76.3% | viability, T/C [18] 124% | viability, T/C [19] 89.5% | viability, T/C [20] 92.4% | viability, T/C [21] 110% | viability, T/C [22] 112% | viability, T/C [23] 105% | viability, T/C [24] 110% | viability, T/C [25] 103% | viability, T/C [26] 96.6% | viability, T/C [27] 85.5% | viability, T/C [28] 101% | viability, T/C [29] 100% | viability, T/C [30] 108% | viability, T/C [31] 106% | viability, T/C [32] 113% | viability, T/C [33] 118% | viability, T/C [34] 86.2% | viability, T/C [35] 110% | viability, T/C [36] 101%
> 10 µM: IC50 (second compound 0.00316 µM) | IC50 (second compound 0.01 µM) | IC50 (second compound 0.0316 µM) | IC50 (second compound 0.1 µM) | IC50 (second compound 0.316 µM) | IC50 (second compound 1 µM)

NC1c2ccccc2OC12CCN(c1cnc3c(N4CCCc5ncccc54)n[nH]c3n1)CC2 (stereo not given) + C=CC(=O)N1CCN(c2nc(OCC3CCCN3C)nc3c(F)c(-c4nc(N)cc(C)c4C(F)(F)F)c(Cl)cc23)C(C)C1
> 10 µM: IC50 (second compound 0.00316 µM) | IC50 (second compound 0.01 µM) | IC50 (second compound 0.0316 µM) | IC50 (second compound 0.1 µM) | IC50 (second compound 0.316 µM) | IC50 (second compound 1 µM)
inactive: viability, T/C [1] 114% | viability, T/C [2] 104% | viability, T/C [3] 102% | viability, T/C [4] 95% | viability, T/C [5] 105% | viability, T/C [6] 79% | viability, T/C [7] 89.9% | viability, T/C [8] 112% | viability, T/C [9] 99.1% | viability, T/C [10] 118% | viability, T/C [11] 93.8% | viability, T/C [12] 86.5% | viability, T/C [13] 106% | viability, T/C [14] 105% | viability, T/C [15] 92.9% | viability, T/C [16] 92.2% | viability, T/C [17] 90.3% | viability, T/C [18] 83.5% | viability, T/C [19] 82.1% | viability, T/C [20] 87.8% | viability, T/C [21] 84.1% | viability, T/C [22] 108% | viability, T/C [23] 122% | viability, T/C [24] 84.2% | viability, T/C [25] 88% | viability, T/C [26] 98.6% | viability, T/C [27] 95.8% | viability, T/C [28] 96.5% | viability, T/C [29] 113% | viability, T/C [30] 91.1% | viability, T/C [31] 97.5% | viability, T/C [32] 106% | viability, T/C [33] 103% | viability, T/C [34] 104% | viability, T/C [35] 104% | viability, T/C [36] 86.6%

Nc1ccn(C2OC(CO)C(O)C2(F)F)c(=O)n1 (stereo not given) + C=CC(=O)N1CCN(c2nc(OCC3CCCN3C)nc3c(F)c(-c4nc(N)cc(C)c4C(F)(F)F)c(Cl)cc23)C(C)C1
inactive: viability, T/C (second compound 0.00316 µM, first compound 0.00316 µM) 108% | viability, T/C (second compound 0.00316 µM, first compound 0.01 µM) 98.9% | viability, T/C [1] 99% | viability, T/C [2] 80.1% | viability, T/C [3] 44.1% | viability, T/C [4] 31.6% | viability, T/C (second compound 0.01 µM, first compound 0.00316 µM) 98.3% | viability, T/C (second compound 0.01 µM, first compound 0.01 µM) 111% | viability, T/C [7] 102% | viability, T/C [8] 72.4% | viability, T/C [9] 47.8% | viability, T/C [10] 35% | viability, T/C (second compound 0.0316 µM, first compound 0.00316 µM) 117% | viability, T/C (second compound 0.0316 µM, first compound 0.01 µM) 110% | viability, T/C [13] 118% | viability, T/C [14] 69.2% | viability, T/C [15] 46.9% | viability, T/C [16] 33.8% | viability, T/C (second compound 0.1 µM, first compound 0.00316 µM) 90.1% | viability, T/C (second compound 0.1 µM, first compound 0.01 µM) 101% | viability, T/C [19] 101% | viability, T/C [20] 79.8% | viability, T/C [21] 47.2% | viability, T/C [22] 34.4% | viability, T/C (second compound 0.316 µM, first compound 0.00316 µM) 117% | viability, T/C (second compound 0.316 µM, first compound 0.01 µM) 125% | viability, T/C [25] 107% | viability, T/C [26] 65.6% | viability, T/C [27] 52.2% | viability, T/C [28] 32.9% | viability, T/C (second compound 1 µM, first compound 0.00316 µM) 101% | viability, T/C (second compound 1 µM, first compound 0.01 µM) 101% | viability, T/C [31] 99% | viability, T/C [32] 88% | viability, T/C [33] 65.3% | viability, T/C [34] 36.5%
0.257 µM: IC50 (second compound 0.01 µM)
0.266 µM: IC50 (second compound 0.00316 µM)
0.278 µM: IC50 (second compound 0.1 µM)
0.58 µM: IC50 (second compound 1 µM)
0.243 µM: IC50 (second compound 0.316 µM)
0.215 µM: IC50 (second compound 0.0316 µM)
